Source: the supplement of paper PMC10307832

Columns and labels:
Assay in all cases: relative viability (nuclei count vs DMSO), 5 days (fraction); higher = more cells survive
NCI-H522 = test system: NCI-H522
In short: (§1)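 Five library-drug doses in √10 steps were combined with a fixed anchor-drug dose, or a single drug was given alone, by pin tool to lung cancer cell lines in 1536-well plates the day after seeding. Nuclei were stained and counted after 5 days. Relative viability is the nuclei count in treated wells over that in vehicle wells, taken as the median of duplicate plates.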

ChaGo-K-1 = test system: ChaGo-K-1
In short: as §1

SK-MES-1 = test system: SK-MES-1
In short: as §1

Calu-6 = test system: Calu-6
In short: as §1

A549 = test system: A549
In short: as §1

NCI-H1703 = test system: NCI-H1703
In short: as §1

EBC-1 = test system: EBC-1
In short: as §1

NCI-H1651 = test system: NCI-H1651
In short: as §1

NCI-H1648 = test system: NCI-H1648
In short: as §1

NCI-H1299 = test system: NCI-H1299
In short: as §1

IA-LM = test system: IA-LM
In short: as §1

NCI-H1623 = test system: NCI-H1623
In short: as §1

## NC(=O)Nc1cc(-c2cccc(F)c2)sc1C(=O)N[C@H]1CCCNC1 [AZD7762] + O=C(c1cc(Cc2n[nH]c(=O)c3ccccc23)ccc1F)N1CCN(C(=O)C2CC2)CC1 [Olaparib] (partner 8 µM)
NCI-H522; first compound 0.01 µM
  relative viability: 0.711
NCI-H522; first compound 0.03162 µM
  relative viability: 0.631
NCI-H522; first compound 0.1 µM
  relative viability: 0.676
NCI-H522; first compound 0.3162 µM
  relative viability: 0.59
NCI-H522; first compound 1 µM
  relative viability: 0.632
ChaGo-K-1; first compound 0.01 µM
  relative viability: 0.394
ChaGo-K-1; first compound 0.03162 µM
  relative viability: 0.425
ChaGo-K-1; first compound 0.1 µM
  relative viability: 0.423
ChaGo-K-1; first compound 0.3162 µM
  relative viability: 0.415
ChaGo-K-1; first compound 1 µM
  relative viability: 0.379
SK-MES-1; first compound 0.01 µM
  relative viability: 0.831
SK-MES-1; first compound 0.03162 µM
  relative viability: 0.828
SK-MES-1; first compound 0.1 µM
  relative viability: 0.506
SK-MES-1; first compound 0.3162 µM
  relative viability: 0.247
SK-MES-1; first compound 1 µM
  relative viability: 0.189
Calu-6; first compound 0.01 µM
  relative viability: 0.636
Calu-6; first compound 0.03162 µM
  relative viability: 0.47
Calu-6; first compound 0.1 µM
  relative viability: 0.375
Calu-6; first compound 0.3162 µM
  relative viability: 0.166
Calu-6; first compound 1 µM
  relative viability: 0.109
A549; first compound 0.01 µM
  relative viability: 0.37
A549; first compound 0.03162 µM
  relative viability: 0.387
A549; first compound 0.1 µM
  relative viability: 0.381
A549; first compound 0.3162 µM
  relative viability: 0.481
A549; first compound 1 µM
  relative viability: 0.155
NCI-H1703; first compound 0.01 µM
  relative viability: 0.305
NCI-H1703; first compound 0.03162 µM
  relative viability: 0.214
NCI-H1703; first compound 0.1 µM
  relative viability: 0.206
NCI-H1703; first compound 0.3162 µM
  relative viability: 0.168
NCI-H1703; first compound 1 µM
  relative viability: 0.12
EBC-1; first compound 0.01 µM
  relative viability: 0.848
EBC-1; first compound 0.03162 µM
  relative viability: 0.915
EBC-1; first compound 0.1 µM
  relative viability: 0.872
EBC-1; first compound 0.3162 µM
  relative viability: 0.717
EBC-1; first compound 1 µM
  relative viability: 0.451
NCI-H1651; first compound 0.01 µM
  relative viability: 0.184
NCI-H1651; first compound 0.03162 µM
  relative viability: 0.202
NCI-H1651; first compound 0.1 µM
  relative viability: 0.156
NCI-H1651; first compound 0.3162 µM
  relative viability: 0.153
NCI-H1651; first compound 1 µM
  relative viability: 0.137
NCI-H1648; first compound 0.01 µM
  relative viability: 0.639
NCI-H1648; first compound 0.03162 µM
  relative viability: 0.994
NCI-H1648; first compound 0.1 µM
  relative viability: 0.751
NCI-H1648; first compound 0.3162 µM
  relative viability: 0.934
NCI-H1648; first compound 1 µM
  relative viability: 0.61
NCI-H1299; first compound 0.01 µM
  relative viability: 1.02
NCI-H1299; first compound 0.03162 µM
  relative viability: 1
NCI-H1299; first compound 0.1 µM
  relative viability: 0.954
NCI-H1299; first compound 0.3162 µM
  relative viability: 0.688
NCI-H1299; first compound 1 µM
  relative viability: 0.312
IA-LM; first compound 0.01 µM
  relative viability: 1.07
IA-LM; first compound 0.03162 µM
  relative viability: 0.796
IA-LM; first compound 0.1 µM
  relative viability: 0.891
IA-LM; first compound 0.3162 µM
  relative viability: 0.655
IA-LM; first compound 1 µM
  relative viability: 0.171

## C=C1C(=O)O[C@@H](CCCCCCCC)[C@@H]1C(=O)O [C-75] + CCNC(=O)c1noc(-c2cc(C(C)C)c(O)cc2O)c1-c1ccc(CN2CCOCC2)cc1 [Luminespib] (partner 0.01 µM)
NCI-H522; first compound 0.08 µM
  relative viability: 1.06
NCI-H522; first compound 0.253 µM
  relative viability: 1.04
NCI-H522; first compound 0.8 µM
  relative viability: 1.06
NCI-H522; first compound 2.53 µM
  relative viability: 0.904
NCI-H522; first compound 8 µM
  relative viability: 0.911
ChaGo-K-1; first compound 0.08 µM
  relative viability: 0.524
ChaGo-K-1; first compound 0.253 µM
  relative viability: 0.587
ChaGo-K-1; first compound 0.8 µM
  relative viability: 0.598
ChaGo-K-1; first compound 2.53 µM
  relative viability: 0.638
ChaGo-K-1; first compound 8 µM
  relative viability: 0.478
SK-MES-1; first compound 0.08 µM
  relative viability: 0.756
SK-MES-1; first compound 0.253 µM
  relative viability: 0.73
SK-MES-1; first compound 0.8 µM
  relative viability: 0.685
SK-MES-1; first compound 2.53 µM
  relative viability: 0.652
SK-MES-1; first compound 8 µM
  relative viability: 0.552
NCI-H1651; first compound 0.08 µM
  relative viability: 0.817
NCI-H1651; first compound 0.253 µM
  relative viability: 0.939
NCI-H1651; first compound 0.8 µM
  relative viability: 0.829
NCI-H1651; first compound 2.53 µM
  relative viability: 0.672
NCI-H1651; first compound 8 µM
  relative viability: 0.934
NCI-H1623; first compound 0.08 µM
  relative viability: 0.436
NCI-H1623; first compound 0.253 µM
  relative viability: 0.536
NCI-H1623; first compound 0.8 µM
  relative viability: 0.585
NCI-H1623; first compound 2.53 µM
  relative viability: 0.505
NCI-H1623; first compound 8 µM
  relative viability: 0.475

## O=C(O)c1ccc(-c2c[nH]c3ncc(-c4ccccc4)cc23)cc1C1CCCC1 + CCNC(=O)c1noc(-c2cc(C(C)C)c(O)cc2O)c1-c1ccc(CN2CCOCC2)cc1 [Luminespib] (partner 0.01 µM)
NCI-H522; first compound 0.04 µM
  relative viability: 1.37
NCI-H522; first compound 0.1265 µM
  relative viability: 1.19
NCI-H522; first compound 0.4 µM
  relative viability: 0.998
NCI-H522; first compound 1.265 µM
  relative viability: 1.03
ChaGo-K-1; first compound 0.04 µM
  relative viability: 0.712
ChaGo-K-1; first compound 0.1265 µM
  relative viability: 0.651
ChaGo-K-1; first compound 0.4 µM
  relative viability: 0.56
ChaGo-K-1; first compound 1.265 µM
  relative viability: 0.536
SK-MES-1; first compound 0.04 µM
  relative viability: 0.81
SK-MES-1; first compound 0.1265 µM
  relative viability: 0.973
SK-MES-1; first compound 0.4 µM
  relative viability: 0.596
SK-MES-1; first compound 1.265 µM
  relative viability: 0.35
NCI-H1651; first compound 0.04 µM
  relative viability: 0.927
NCI-H1651; first compound 0.1265 µM
  relative viability: 0.863
NCI-H1651; first compound 0.4 µM
  relative viability: 0.6
NCI-H1651; first compound 1.265 µM
  relative viability: 0.638
NCI-H1623; first compound 0.04 µM
  relative viability: 0.445
NCI-H1623; first compound 0.1265 µM
  relative viability: 0.471
NCI-H1623; first compound 0.4 µM
  relative viability: 0.512
NCI-H1623; first compound 1.265 µM
  relative viability: 0.496
